Assay results from patent US11884708B2, “Stapled peptide inhibitors of nemo as potential anti-inflammatory and anti-cancer drugs” (INSTITUT PASTEUR, priority 2015, dated 2024).
Where two headings read alike, the source gives them in different places. One block for each compound: values may come before it. Where a SMILES comes first, the peptide text is derived from it. Bridges are numbered along the chain shown (N, C = ends). Where no end group is shown, it is not given here. [ ]: non-standard residue; d: D form. The star is where a group is joined. BODIPYFLEthylmaleimide = Cc1cc(C)n2c1C=C1C=CC(CCC(=O)NCCN3C(=O)CC(*)C3=O)=[N+]1[B-]2(F)F; R8 = C=CCCCCCC[C@@](C)(N)C(=O)O; S5 = C=CCCC[C@](C)(N)C(=O)O

Legend:
NF-κB pathway = NF-κB pathway (Mus musculus, UniProt O88522); experiment: NF-κB inhibition assay, LPS-stimulated 70Z3-C3 lacZ reporter cells; format: cell-based; settings: 70Z3-C3 cells, 2 h peptide then LPS 4 h, N.I = No inhibition observed; for IC50: read-out: IC 50 NF-κB inhibition
Chain of NF-κB pathway (O88522 whole entry): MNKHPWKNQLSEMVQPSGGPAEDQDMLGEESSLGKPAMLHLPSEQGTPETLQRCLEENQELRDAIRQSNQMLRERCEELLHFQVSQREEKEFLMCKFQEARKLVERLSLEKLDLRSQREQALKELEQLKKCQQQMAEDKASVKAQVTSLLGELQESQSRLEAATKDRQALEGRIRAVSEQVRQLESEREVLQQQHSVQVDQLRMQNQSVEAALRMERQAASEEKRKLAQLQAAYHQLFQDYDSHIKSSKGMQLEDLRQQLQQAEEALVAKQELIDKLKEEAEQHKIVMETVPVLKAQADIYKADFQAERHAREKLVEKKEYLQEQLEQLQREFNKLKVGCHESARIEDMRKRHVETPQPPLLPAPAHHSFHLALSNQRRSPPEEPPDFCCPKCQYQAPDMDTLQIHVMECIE
Text: The stable cell line of pre-B lymphocyte 70Z3-C3 cells expressing the lacZ reporter gene under the control of NF-κB was previously described. OCI-Ly3 (ABC-DLBCL, MALT1 dependent) and OCI-Ly7 (GCB-DLBCL). U2932 (ABC-DLBCL, MALT1 independent) were purchased from DSMZ (Deutsche Sammlung von Mikroorganismen and Zellkulturen) and HLY1 (ABC-DLBCL, MALT1 independent). Jurkat T-cells were obtained after transduction of lentiviruses containing a NF-κB reporter luciferase gene as previously described. All cell lines were grown in RPMI 1640 medium supplemented with 10% FBS, 10 μg/ml of streptomycin, 10 U/ml of penicillin and kept at 37° C., in a 5% CO2 humidified incubator. 0.05 mM of β-mercaptoethanol was added for 70Z3-C3. Primary and secondary antibodies were as following: polyclonal rabbit anti NF-κB p65, (sc-372, Santa Cruz Biotechnology, Inc) Alexa-488 coupled goat anti-rabbit IgG1 (Invitrogen) NF-κB inhibition assay was almost similar to those previously described in [1], except that luminescence data were monitored with a Centro XS^3, LB960 luminometer (Berthold technologies.), which is more sensitive. All experiments were performed in duplicates in 96-well plates. […] After 4 h incubation, cells were centrifuged 7 min at 400×g, at 4° C.

[1] = Temperature-induced denaturation followed by CD; format: physicochemical; settings: 30 μM or 300 μM, ΔCp ≈ 0
Method: Temperature-induced denaturation experiments were performed by measuring the ellipticity at 222 nm from 1° C. to 95° C. in 1° C. steps, at a rate of 1° C./min, with a 2 nm bandwidth. Thermodynamic parameters including the melting temperature (Tm) and the van't Hoff enthalpy change at the melting temperature (ΔHm) were determined by fitting the denaturation curves with the Gibbs-Helmholtz equation as described elsewhere, [10]. The heat capacity change (ΔCp) was assumed to be 0 as judged by ΔHm which yielded similar values within 10% at two independent peptide concentrations (30 and 300 μM). The ellipticity was converted to differential extinction coefficient Δε (M^−1·cm^−1) per residue taking into account the peptide concentration determined by amino acid analysis.
Thermal stability of the peptides was also investigated by performing thermal denaturation profiles followed by CD (FIGS. 1 C and D and Table III). […] Indeed, the helicity of UBI-Aib (49%) is only 1.16-fold increased at 1° C. compared to UBI (42%), while its melting temperature (Tm=−8° C.) is 2.25 times higher than that of UBI (Tm=−18° C.).

CC2-LZ domain of NEMO = CC2-LZ domain of NEMO (Mus musculus, UniProt O88522); experiment: Fluorescence anisotropy/polarization binding assay; settings: for Kd: fixed peptide concentration 0.1 μM
Chain of CC2-LZ domain of NEMO (O88522 242-343 limits assumed): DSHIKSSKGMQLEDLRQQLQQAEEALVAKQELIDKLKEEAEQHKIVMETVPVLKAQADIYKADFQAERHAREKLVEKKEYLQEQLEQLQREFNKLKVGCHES
Method: Measurements were performed on a Tecan infinite F500 equipped with polarizing filters and using excitation and emission wavelengths at 485 nm and 535 nm, respectively. Anisotropy data were calculated using the Magellan software version 6.5. Prior experiments, the mouse CC2-LZ was extensively dialyzed in binding buffer containing 20 mM HEPES pH 7.4, 100 mM NaCl, and 0.05% P20 detergent (v/v). All experiments were performed in a 384 well plate (vol 25 μl) at room temperature. The BODIPY®-labeled peptide concentrations were fixed at 0.1 or 10 μM whereas the CC2-LZ concentration varied from 0 to 100 μM. Reference calibrated at 22 mP, was based on the fluorescence of the peptide alone. Each experimental binding curve was determined from at least 10 independent concentration points. The G-factor was calculated as previously described in Agou et al. [7], with a value of 0.75, which was observed constant within 5% upon all titrations. For analysis, the blank value corresponding to the value of buffer alone, was subtracted from all titration data.
All NEMO peptides were conjugated to an extra N-terminal cysteine with the fluorophore BODIPY® or FITC to determine their binding affinity for the CC2-LZ domain of NEMO (also called NOA or UBAN) by fluorescence polarization. For each peptide titration, various concentration of the target ranging from 0 to 100 μM and a fixed concentration of peptide at 0.1 or 10 μM were used at 25° C. […] For these reasons, all further titration experiments were performed with a fixed peptide concentration of 0.1 μM unless otherwise indicated.

[2] = CD spectroscopy, α-helical content; format: physicochemical; settings: 50 μM peptide, phosphate buffer pH 7.0, UBI in TFE taken as 100%
70Z3-C3 cells = experiment: Cellular uptake of BODIPY-labeled peptides by FACS; format: cell-based; settings: 10 μM labeled peptide, 2 h, 37° C.
Method: 2.2×10^5 cells in 100 μl of 70Z3-C3 were incubated with either 10 μM or with various doses of 10 μM, 5 μM and 1 μM of labeled-peptides at 37° C., 5% CO2. Similarly to fluorescence microscopy experiments, cells alone or incubated with BODIPY®-labeled BSA (ref) or BODIPY®-UBI devoid of the antennapedia cell penetrating sequence were used as negative control, whereas cells with BA-UBI [1] at 10 μM were used as positive control. After 2 h incubation, cells were washed 4 times with PBS at room temperature, and finally diluted 1:3 in PBS before subjected to FACS analysis. Along with the BODIPY® fluorophore the fluorescence intensity was recorded at 525±25 nm using the Gallios Flow cytometer (Beckman Coulter) to analyse each cells sample. Each internalization peptide was assessed by gating a population of 15,000 events and the data were analysed using Kaluza software version 1.2.
For determination of cellular uptake by flow cytometry, the BA-UBI-SAHND306-Q313 stapled peptide was first incubated with 2.2×10^5 70Z3-C3 cells in […] either at 4° C. or 37° C. for 2 h. Bodipy-labeled BSA, bodipy alone and bodipy-UBI were used as negative controls to verify the washing quality and efficient removal of any non-specific binding at the cell surface before FACS analysis. […] After 2 h of incubation, cells were washed four times with PBS at room temperature and diluted at 1:3 in PBS for FACS analysis. Samples were analyzed as previously described in the European patent (No: 15307137.8).

IC 50 NF-κB inhibition (NF-κB pathway): N.I*
ΔS [1]: −11 cal. mol^−1.K^−1
Tm ([1]; thermal denaturation by CD): 15 ± 0.3 C°
ΔH ([1]; van't Hoff enthalpy change at Tm): -3200 cal/mol
Kd (CC2-LZ domain of NEMO; read-out: Binding affinity (FP) at 0.1 μM): ~360 µM
Binding affinity (FP) at 10 μM (CC2-LZ domain of NEMO; fixed peptide concentration 10 μM): Very weak
α-helical content at 1° C. [2]: 65%
Compound: CC[C@H](C)[C@H](NC(=O)[C@H](CC(=O)O)NC(=O)[C@H](C)NC(=O)[C@H](CCC(N)=O)NC(=O)[C@H](C)NC(=O)[C@H](CCCCN)NC(=O)[C@H](CC(C)C)NC(=O)[C@H](CSC1CC(=O)N(CCNC(=O)CCC2=[N+]3C(=Cc4c(C)cc(C)n4[B-]3(F)F)C=C2)C1=O)NC(C)=O)C(=O)N[C@@H](Cc1ccc(O)cc1)C(=O)N[C@@H](CCCCN)C(=O)N[C@@]1(C)CCCC=CCCC[C@@](C)(C(=O)N[C@@H](CCC(=O)O)C(=O)N[C@@H](CCCNC(=N)N)C(=O)N[C@@H](Cc2c[nH]cn2)C(=O)N[C@@H](C)C(=O)N[C@@H](CCCNC(=N)N)C(=O)N[C@@H](CCC(=O)O)C(=O)N[C@@H](CCCCN)C(N)=O)NC(=O)[C@H](CCC(N)=O)NC(=O)[C@H](Cc2ccccc2)NC(=O)[C@H](CCCNC(=N)N)NC1=O (some centres unmarked) [UBI-SAHN A310-A314, LKAQADIYKX4RFQX6ERHAREK] (Ac-C(BODIPYFLEthylmaleimide)LKAQADIYK[S5]RFQ[S5]ERHAREK-NH2; staple 11-15)

IC50 (NF-κB pathway): 600 nM
Compound: CC[C@H](C)[C@@H]1NC(=O)[C@H](CC(=O)O)NC(=O)[C@H](C)NC(=O)[C@H](CCC(N)=O)NC(=O)[C@](C)(NC(=O)[C@H](CCCCN)NC(=O)[C@H](CC(C)C)NC(=O)[C@H](CCCCN)NC(=O)[C@H](CCCCN)NC(=O)[C@H](Cc2c[nH]c3ccccc23)NC(=O)[C@H](CCCCN)NC(=O)[C@H](CCSC)NC(=O)[C@H](CCCNC(=N)N)NC(=O)[C@H](CCCNC(=N)N)NC(=O)[C@H](CC(N)=O)NC(=O)[C@H](CCC(N)=O)NC(=O)[C@H](Cc2ccccc2)NC(=O)[C@H](Cc2c[nH]c3ccccc23)NC(=O)[C@@H](NC(=O)[C@H](CCCCN)NC(=O)[C@@H](NC(=O)[C@H](CCC(N)=O)NC(=O)[C@H](CCCNC(=N)N)NC(=O)[C@H](CSC2CC(=O)N(CCNC(=O)CCC3=[N+]4C(=Cc5c(C)cc(C)n5[B-]4(F)F)C=C3)C2=O)NC(C)=O)[C@@H](C)CC)[C@@H](C)CC)CCCCCCC=CCCC[C@@](C)(C(=O)N[C@@H](CCCNC(=N)N)C(=O)N[C@@H](Cc2ccccc2)C(=O)N[C@@H](CCC(N)=O)C(=O)N[C@@H](C)C(=O)N[C@@H](CCC(=O)O)C(=O)N[C@@H](CCCNC(=N)N)C(=O)N[C@@H](Cc2c[nH]cn2)C(=O)N[C@@H](C)C(=O)N[C@@H](CCCNC(=N)N)C(=O)N[C@@H](CCC(=O)O)C(=O)N[C@@H](CCCCN)C(N)=O)NC(=O)[C@H](CCCCN)NC(=O)[C@H](Cc2ccc(O)cc2)NC1=O (single isomer, unassigned) [A-UBI-SAHN A303-A310 (B)]

IC 50 NF-κB inhibition (NF-κB pathway): N.I*
Compound: LKAQAX2IYKARFX5AERHAREK (LKAQA[R8]IYKARF[S5]AERHAREK; staple 6-13) [UBI-SAHN D306-Q313]
FACS peak median, first or only peak (70Z3-C3 cells): 8
FACS peak median, second peak (70Z3-C3 cells): 52

IC 50 NF-κB inhibition (NF-κB pathway): N.I*
Compound: CC[C@H](C)[C@H](NC(=O)[C@H](CC(=O)O)NC(=O)C(C)(C)NC(=O)[C@H](CCC(N)=O)NC(=O)C(C)(C)NC(=O)[C@H](CCCCN)NC(=O)[C@@H](N)CC(C)C)C(=O)N[C@@H](Cc1ccc(O)cc1)C(=O)N[C@@H](CCCCN)C(=O)NC(C)(C)C(=O)N[C@@H](CCCNC(=N)N)C(=O)N[C@@H](Cc1ccccc1)C(=O)N[C@@H](CCC(N)=O)C(=O)NC(C)(C)C(=O)N[C@@H](CCC(=O)O)C(=O)N[C@@H](CCCNC(=N)N)C(=O)N[C@@H](Cc1c[nH]cn1)C(=O)NC(C)(C)C(=O)N[C@@H](CCCNC(=N)N)C(=O)N[C@@H](CCC(=O)O)C(=O)N[C@@H](CCCCN)C(=O)O [UBI-AIB, LKAibQAibDIYKAibRFQAibERHAibREK] (HELM PEPTIDE1{L.K.[Aib].Q.[Aib].D.I.Y.K.[Aib].R.F.Q.[Aib].E.R.H.[Aib].R.E.K}$$$$V2.0)

IC 50 NF-κB inhibition (NF-κB pathway): N.I*
Compound: CC[C@H](C)[C@H](NC(=O)[C@H](CC(=O)O)NC(=O)[C@H](C)NC(=O)[C@H](CCC(N)=O)NC(=O)[C@H](C)NC(=O)[C@H](CCCCN)NC(=O)[C@@H](N)CC(C)C)C(=O)N[C@@H](Cc1ccc(O)cc1)C(=O)N[C@@H](CCCCN)C(=O)N[C@@H](C)C(=O)N[C@@H](CCCNC(=N)N)C(=O)N[C@@H](Cc1ccccc1)C(=O)N[C@@H](CCC(N)=O)C(=O)N[C@@H](C)C(=O)N[C@@H](CCC(=O)O)C(=O)N[C@@H](CCCNC(=N)N)C(=O)N[C@@H](Cc1c[nH]cn1)C(=O)N[C@@H](C)C(=O)N[C@@H](CCCNC(=N)N)C(=O)N[C@@H](CCC(=O)O)C(=O)N[C@@H](CCCCN)C(=O)O [UBI, reference compound] (H-LKAQADIYKARFQAERHAREK-OH)

IC50 (NF-κB pathway): 600 nM
Kd (CC2-LZ domain of NEMO; peptides with antennapedia, read-out: KD): 0.06 µM
Compound: CC[C@H](C)[C@H](NC(=O)[C@H](CCCCN)NC(=O)[C@@H](NC(=O)[C@H](CCC(N)=O)NC(=O)[C@H](CCCNC(=N)N)NC(=O)[C@H](CSC1CC(=O)N(CCNC(=O)CCC2=[N+]3C(=Cc4c(C)cc(C)n4[B-]3(F)F)C=C2)C1=O)NC(C)=O)[C@@H](C)CC)C(=O)N[C@@H](Cc1c[nH]c2ccccc12)C(=O)N[C@@H](Cc1ccccc1)C(=O)N[C@@H](CCC(N)=O)C(=O)N[C@@H](CC(N)=O)C(=O)N[C@@H](CCCNC(=N)N)C(=O)N[C@@H](CCCNC(=N)N)C(=O)N[C@@H](CCSC)C(=O)N[C@@H](CCCCN)C(=O)N[C@@H](Cc1c[nH]c2ccccc12)C(=O)N[C@@H](CCCCN)C(=O)N[C@@H](CCCCN)C(=O)N[C@@H](CC(C)C)C(=O)N[C@@H](CCCCN)C(=O)N[C@@H](C)C(=O)N[C@@H](CCC(N)=O)C(=O)N[C@@H](C)C(=O)N[C@]1(C)CCCCCCC=CCCC[C@@](C)(C(=O)N[C@@H](C)C(=O)N[C@@H](CCC(=O)O)C(=O)N[C@@H](CCCNC(=N)N)C(=O)N[C@@H](Cc2c[nH]cn2)C(=O)N[C@@H](C)C(=O)N[C@@H](CCCNC(=N)N)C(=O)N[C@@H](CCC(=O)O)C(=O)N[C@@H](CCCCN)C(N)=O)NC(=O)[C@H](Cc2ccccc2)NC(=O)[C@H](CCCNC(=N)N)NC(=O)[C@H](C)NC(=O)[C@H](CCCCN)NC(=O)[C@H](Cc2ccc(O)cc2)NC(=O)[C@H]([C@@H](C)CC)NC1=O (single isomer, unassigned) [A-UBI-SAHN D306-Q313 (A)]

IC 50 NF-κB inhibition (NF-κB pathway): N.I*
Compound: LKX1QADIYKX4RFQAERHAREK [UBI-SAHN A303-A310]
FACS peak median, first or only peak (70Z3-C3 cells): 8
